Several values for one entry are separate records, joined by “and”; a condition that tells them apart may be missing. Equal entries are not always repeated. Where two headings read alike, the source gives them in different places.
How the values were obtained:
[1] = tested on: canonical WNT signalling; assay: β-catenin IHC of duodenal crypt base cells; format: in vivo, mice; conditions: gavage 10 mg/kg n = 2 and 50 mg/kg n = 1
Experimental: (§1) Mouse tissue was fixed overnight in 4% PFA, routinely processed and paraffin embedded. The paraffin-embedded tissue was sectioned at 3–4.5 μm. IHC staining was performed as previously described, with primary antibodies against β-catenin, green fluorescent protein (GFP), Lysozyme and Chromogranin A (rabbit monoclonal anti-β-catenin, Abcam ab32572; rabbit monoclonal anti-GFP, Cell Signaling Technology #2956; rabbit monoclonal anti-Lysozyme, Abcam ab108508; rabbit polyclonal anti-Chromogranin A, Abcam ab15160). For quantitative analyses of the IHC-stained tissue sections, the slides were scanned using the Hamamatsu Digital Slide Scanner NanoZoomer 2.0-HT C9600-13 and the number of positive and negative cells in up to 10 crypts or villi from each animal was counted manually. Periodic acid-Schiff (PAS) and Alcian blue staining was performed at the Department of Pathology, Oslo University Hospital, using standard protocols.
To verify that the administered doses of the tankyrase inhibitor had the expected effect on canonical WNT signalling, we stained duodenal tissue sections with a β-catenin-specific antibody. Nuclear localisation of β-catenin implied active canonical WNT signalling in vehicle (n = 3), (Fig. 4a) and G007-LK-treated (gavage 10 mg/kg, n = 2 and 50 mg/kg, n = 1) mice (Fig. 4b).

[2] = tested on: LGR5^+ intestinal stem cells; assay: Lineage tracing from LGR5^+ intestinal stem cells in duodenum (confocal microscopy, GFP IHC)
Experimental: Pieces of duodenum from mice that had undergone induced lineage tracing were fixed for 30 min in 4% paraformaldehyde (PFA) at room temperature, rinsed in PBS and immediately prepared for confocal microscopic analyses. Under a stereo microscope one row of intestinal villi was sectioned from the duodenal wall with a scalpel, rinsed in dH2O and embedded in Mowiol 4-88 (Sigma-Aldrich). The samples were examined with a Zeiss LSM 780 confocal microscope (Carl Zeiss MicroImaging GmbH) equipped with a multiline argon laser (458/488/514 nm), a 10 mW DPSS laser (561 nm), a 405-30 CW laser diode (405 nm), and a helium–neon (HeNe) laser (633 nm). The objective used was a Zeiss Plan-Apochromat 20×/0.8 DIC II. To calculate the numbers and volumes of the traced cells, confocal Z-stacks were analysed with Imaris 7.7.2 (Bitplane AG). A similar threshold for the segmentation of the traced cells was used in all Z-stacks examined. Image visualisations were performed with the basic Zeiss LSM 780 ZEN 2010 software, Photoshop CS4 (Adobe), and Imaris 7.7.2.
as §1

[3] = Tolerance: body mass, food consumption, clinical observations
Experimental: Medicilon Preclinical Research (Shanghai) LCC performed the pharmacokinetic studies; in brief, ICR mice (n = 25) from Sion-British SIPPR/BK Lab Animal Ltd, Shanghai were fed 100 mg G007-LK/kg chow enriched diet ad libitum for 3 consecutive days, body mass and food consumption was measured daily.
The body mass of the G007-LK-treated mice and the amount of consumed chow was measured 5 days per week. […] The mice were treated with G007-LK for 9 days by oral gavage or 21 days with the enriched diet.
The tolerance of G007-LK treatment in the experimental mice used in this study was further evaluated by short-term oral gavage treatment daily for 9 days with 10 or 50 mg G007-LK/kg body mass (Fig. 1d). […] For long-term treatment, mice were fed G007-LK-enriched diets, 100 or 1000 mg G007-LK/kg chow for up to 3 weeks (Fig. 1f).

[4] = tested on: duodenum; assay: Duodenal morphology and cellular composition (H&E, PAS, Alcian blue, Lysozyme, Chromogranin A); format: in vivo, mice
Experimental: as §1
Similar data for the goblet cells were obtained by Alcian blue staining of acidic mucin (Additional file 5: Figure S4A–C).

[5] = tested on: duodenal crypt cells; assay: BrdU labelling of duodenal crypt cells; format: in vivo, mice; conditions: 100 mg/kg chow
Experimental: Slides with tissue sections were deparaffinised in xylene and re-hydrated through a graded series of ethanol. Heat-antigen retrieval was performed in 10 mM sodium-citrate buffer supplemented with 0.05% Tween 20 in a pressure cooker for 3 min and the slides were slowly cooled down. Slides were rinsed in washing buffer (PBS supplemented with 0.1% Tween), incubated with blocking buffer (PBS supplemented with 5% goat serum and 5% bovine serum albumin (BSA)) for 30 min at room temperature and rinsed in washing buffer. Primary antibodies (mouse monoclonal anti-BrdU, ThermoFisher #B35128; monoclonal anti-GFP, Cell Signalling #2956) diluted in blocking buffer were applied and incubated over night at 4 °C. […]
Mice were treated with BrdU (100 mg/kg body mass) 1 h before being sacrificed or with daily 1 mg BrdU injections for 7 days prior to sacrifice. […] BrdU-labelled cells were detected using a BrdU IHC kit (Abcam #125306) according to the manufacturer’s protocol, or using a monoclonal anti-BrdU antibody (ThermoFisher #B35128) and a Mouse-on-Mouse kit (Vector Laboratories #BMK-2202) according to the IHC protocol outlined above. The fraction of BrdU-labelled crypt cells was calculated.

[6] = Pharmacokinetic analysis in plasma after G007-LK enriched chow; format: in vivo, ICR mice; conditions: for G007-LK Concentration in plasma, Mean: n=5; for Cmax: 0 h
Experimental: To address the pharmacokinetic properties of the tankyrase inhibitor G007-LK, ICR mice (n = 25) were treated for 3 days with a G007-LK-enriched diet, containing 100 mg G007-LK/kg chow. […] Pharmacokinetic parameters of G007-LK following administration of enriched diet for three consecutive days are listed in Table 1.

[7] = cited from earlier work
[8] = ICR mice, 100 mg G007-LK/kg chow, 3 days
[9] = ICR mice, female, diet containing G007-LK 100 mg/kg chow 3 days, plasma
[10] = 6 months, 158 mg/kg chow, high fat-based diet

CS(=O)(=O)c1ccc(-c2nnc(/C=C/c3nnc(-c4ccc(C#N)cc4)o3)n2-c2ccccc2Cl)nc1 [G007-LK]
fraction of β-catenin-positive nuclei in crypt base cells vs control [1]: significant (t test, p < 0.05) reduction | lineage tracing after stop of treatment (G007-LK-stop, reversibility) ([2]; 100 mg/kg chow 2 weeks, G007-LK-free diet 2 days before tamoxifen, tracing 7 days): presence of lineage traced cells throughout the entire length of the villi | average ratio of crypts with GFP positive cells versus total counted crypts ([2]; GFP IHC, G007-LK treated mice n = 10 (control 0.51)): 0.39 | reduction of ratio of crypts with GFP positive cells versus total counted crypts, compared with control ([2]; GFP IHC, n = 10 treated, p = 0.05): 23% | location of lineage traced cells when treatment starts after tamoxifen ([2]; Lgr5-EGFP-CreERT2;R26R-tdTomato mice, 100 mg/kg chow 6 days, started 24–36 h after tamoxifen): lineage traced cells were detected in the middle of the duodenal villi | number of villi with traced cells vs control ([2]; duodenum): significantly (t test, p < 0.05) reduced | number of lineage traced cells vs control ([2]; image analysis, duodenum): significant (t test, p < 0.05) reduction | volume of lineage traced cells vs control ([2]; image analysis, duodenum): significant (t test, p < 0.05) reduction | lineage tracing from LGR5^+ stem cells ([2]; long-term, 100 mg/kg chow, duodenum): markedly reduced lineage tracing | changes in body mass [3, 8]: minor, not statistically significant | food consumption [3, 8]: stable day 2 and 3 of the G007-LK enriched chow administration period, but statistically significant lower (t test, p < 0.05) the first day | macroscopic phenotypes [3, 8]: No obvious macroscopic abnormal phenotypes were observed | tolerability ([3]; daily doses up to approximately 200 mg/kg body mass, gavage or enriched diet): well tolerated | gross morphology of the duodenum (crypts and villi), H&E ([4]; 9 days gavage 10 or 50 mg/kg, 21 days enriched diet 100 or 1000 mg/kg chow): maintained | crypt abscesses ([4]; distal duodenum and ileum): occasional crypt abscesses were observed | morphology of epithelial cell layer ([4]; distal duodenum and ileum): did not induce major morphological changes | distribution of Paneth cells in crypt base (Lysozyme IHC) vs control ([4]; duodenum): equal distribution pattern | distribution of enteroendocrine cells (Chromogranin A IHC) vs control ([4]; duodenum): comparable distribution patterns | number of PAS stained goblet cells vs vehicle ([4]; duodenum, gavage 50 mg/kg): no significant difference | crypt:villus ratios, crypt duplication rates or size, goblet cell number or size, crypts per villus base ([4]; proximal duodenum, gavage treated vs control): no statistically significant (t test, p > 0.05) changes | BrdU-labelled cells after daily BrdU for 7 days ([5]; n = 3): BrdU-labelled cells were observed at the tips of the villi | ratio of BrdU positive crypt cells ([5]; n = 7, BrdU 1 h (control 0.28), p < 0.05): 0.14 | G007-LK Concentration in plasma, single animals G1-1 to G1-5 ([6]; 0 h after diet removal): 773,96 ng/mL and 795,28 ng/mL and 756,04 ng/mL and 696,04 ng/mL and 791,2 ng/mL | G007-LK Concentration in plasma, Mean ([6]; 0 h after diet removal): 762,5 ng/mL | G007-LK Concentration in plasma, single animals G1-1 to G1-5 ([6]; 1 h after diet removal): 676,41 ng/mL and 696,8 ng/mL and 608,34 ng/mL and 669,24 ng/mL and 689,94 ng/mL | G007-LK Concentration in plasma, Mean ([6]; 1 h after diet removal): 668,15 ng/mL | G007-LK Concentration in plasma, single animals G1-1 to G1-5 ([6]; 2 h after diet removal): 639,46 ng/mL and 649,54 ng/mL and 610,19 ng/mL and 589,18 ng/mL and 567,65 ng/mL | G007-LK Concentration in plasma, Mean ([6]; 2 h after diet removal): 611,2 ng/mL | G007-LK Concentration in plasma, single animals G1-1 to G1-5 ([6]; 4 h after diet removal): 335,27 ng/mL and 378,3 ng/mL and 216,65 ng/mL and 474,86 ng/mL and 316,33 ng/mL | G007-LK Concentration in plasma, Mean ([6]; 4 h after diet removal): 344,28 ng/mL | G007-LK Concentration in plasma, single animals G1-1 to G1-5 ([6]; 12 h after diet removal): 52,75 ng/mL and 105,7 ng/mL and 112,65 ng/mL and 158,02 ng/mL and 111,12 ng/mL | G007-LK Concentration in plasma, Mean ([6]; 12 h after diet removal): 108,05 ng/mL | Cmax ([6]; ICR mice, diet containing G007-LK 100 mg/kg chow 3 days, plasma, read-out: Cmax): 1440 ± 80 nM | AUC(0-t) [6, 9]: 4119.80 ng·h/mL | AUC(0-∞) [6, 9]: 4770.32 ng·h/mL | Cmax [6, 9]: 762.50 ng/mL | t1/2 ([6]; ICR mice, female, diet containing G007-LK 100 mg/kg chow ad libitum 3 days, plasma, non-compartmental): 4.17 h | F^a bioavailability ([6]; enriched chow vs IV data of ref 26, calculated from AUC(0-t)): 22.22% | F^b bioavailability ([6]; enriched chow vs IV data of ref 26, calculated from AUC(0-∞)): 20.69% | glucose metabolism [7, 10]: improved glucose tolerance and insulin sensitivity | toxic effects [7, 10]: did not lead to visible toxic effects | small intestine toxicity ([7]; intermediate and high doses, up to 100 mg/kg body mass once daily 14–20 days, i.p. or orally): partially reversible focal necrosis and inflammation in the small intestine
